Test results as given in patent US20060276400A1, “Modulation of cholesteryl ester transfer protein (CETP) activity” (priority 2005, published 2006).

B1: human CETP: full-length human CETP (SEQ ID NO:7) purified from conditioned media of a huCETP transformed CHO cell line (protein)
chain: CSKGTSHEAGIVCRITKPALLVLNHETAKVIQTAFQRASYPDITGEKAMMLLGQVKYGLHNIQISHLSIASSQVELVEAKSIDVSIQNVSVVFKGTLKYGYTTAWWLGIDQSIDFEIDSAIDLQINTQLTCDSGRVRTDAPDCYLSFHKLLLHLQGEREPGWIKQLFTNFISFTLKLVLKGQICKEINVISNIMADFVQTRAASILSDGDIGVDISLTGDPVITASYLESHHKGHFIYKNVSEDLPLPTFSPTLLGDSRMLYFWFSERVFHSLAKVAFQDGRLMLSLMGDEFKAVLETWGFNTNQEIFQEVVGGFPSQAQVTVHCLKMPKISCQNKGVVVNSSVMVKFLFPRPDQQHSVAYTFEEDIVTTVQASYSKKKLFLSLLDFQITPKTVSNLTESSSESIQSFLQSMITAVGIPEVMSRLEVVFTALMNSKGVSLFDIINPEIITRDGFLLLQMDFGFPEHLLVDFLQSLS
modifications: Human; PEPTIDE (1)..(476) Amino aid sequence of full-length mature human CETP protein

Experiments:
human CETP = assay: ELISA anti-huCETP antibody titers in sera of immunized human CETP transgenic mice; conditions: in vivo; for average anti-huCETP titer: sc
serum CETP activity = assay: Serum CETP activity (fluorescent cholesteryl ester transfer assay) in immunized human CETP transgenic mice; conditions: in vivo
[1] = system: serum HDL-cholesterol (HDLc); set-up: species or system human CETP transgenic mice; conditions: in vivo
[2] = system: endogenous serum CETP activity; assay: Change in endogenous serum CETP activity in rabbits immunized with full-length human CETP; conditions: week 12 post-injection vs week -1 pre-injection, 0.2 mg huCETP in CFA, boosters in IFA; for increase in CETP activity following vaccination: Rabbit #1

Molecule | average anti-huCETP titer (human CETP) | effect on serum CETP activity (in words) (serum CETP activity) | change in serum HDLc levels in contrast to control group (in words) [1] | anti-huCETP titer lower than those of the CETi-1 and CETi-2 groups (human CETP) | increase in CETP activity following vaccination [2] | increase in CETP activity following vaccination ([2]; listed as whole human CETP) | decrease in CETP activity following vaccination ([2]; Rabbit #11, listed as whole human CETP)
CQYIKANSKFIGITEFGFPEHLLVDFLQSLS [CETi-1, reference compound] | ~0.750 OD | appeared to elevate CETP activity | reduction | – | – | – | –
CSKGTSHEAGIVCRITKPALLQYIKANSKFIGITE [CETi-2] | ~0.750 OD | no effect on average | reduction | – | – | – | –
SKGTSHEAGIVCRITKPALLQYIKANSKFIGITE [CETi-2.1] | – | – | – | approx. 30% | – | – | –
B1 | – | – | – | – | +85% | 85% | 77%
